Converted amounts (≈) assume the structure as drawn. The source made the active and inactive calls. No cut-off for these calls is given here.
Tests used:
[1] = system: Staphylococcus aureus; assay: Antimicrobial activity against Staphylococcus aureus N315 assessed as reduction in bacterial growth incubated for 24 hrs by two-fold broth dilution method; format: functional
[2] = system: Staphylococcus aureus; assay: Antimicrobial activity against Staphylococcus aureus ATCC6538 assessed as reduction in bacterial growth incubated for 24 hrs by two-fold broth dilution method; format: functional
[3] = system: Staphylococcus aureus; assay: Antimicrobial activity against methicillin resistant Staphylococcus aureus clinical isolate MRS108 assessed as reduction in bacterial growth incubated for 24 hrs by two-fold broth dilution method; format: functional
[4] = system: Staphylococcus aureus; assay: Antimicrobial activity against methicillin resistant Staphylococcus aureus clinical isolate MRS97 assessed as reduction in bacterial growth incubated for 24 hrs by two-fold broth dilution method; format: functional
[5] = system: Staphylococcus aureus; assay: Antimicrobial activity against methicillin resistant Staphylococcus aureus clinical isolate MRS207 assessed as reduction in bacterial growth incubated for 24 hrs by two-fold broth dilution method; format: functional
[6] = system: Staphylococcus hominis; assay: Antimicrobial activity against methicillin-resistant Staphylococcus hominis assessed as reduction in bacterial growth incubated for 24 hrs by two-fold broth dilution method; format: functional
[7] = system: Staphylococcus aureus; assay: Antimicrobial activity against methicillin resistant Staphylococcus aureus clinical isolate MRS70 assessed as reduction in bacterial growth incubated for 24 hrs by two-fold broth dilution method; format: functional
[8] = system: Staphylococcus aureus; assay: Antimicrobial activity against methicillin resistant Staphylococcus aureus clinical isolate MRS273 assessed as reduction in bacterial growth incubated for 24 hrs by two-fold broth dilution method; format: functional
[9] = system: Staphylococcus aureus; assay: Antimicrobial activity against methicillin resistant Staphylococcus aureus clinical isolate MRS153 assessed as reduction in bacterial growth incubated for 24 hrs by two-fold broth dilution method; format: functional
[10] = system: Staphylococcus aureus; assay: Antimicrobial activity against methicillin resistant Staphylococcus aureus clinical isolate MRS84 assessed as reduction in bacterial growth incubated for 24 hrs by two-fold broth dilution method; format: functional
[11] = system: Staphylococcus aureus; assay: Antimicrobial activity against methicillin resistant Staphylococcus aureus clinical isolate MRS200 assessed as reduction in bacterial growth incubated for 24 hrs by two-fold broth dilution method; format: functional
[12] = system: Staphylococcus aureus; assay: Antimicrobial activity against methicillin resistant Staphylococcus aureus clinical isolate MRS152 assessed as reduction in bacterial growth incubated for 24 hrs by two-fold broth dilution method; format: functional
[13] = system: Staphylococcus aureus; assay: Antimicrobial activity against methicillin resistant Staphylococcus aureus clinical isolate MRS121 assessed as reduction in bacterial growth incubated for 24 hrs by two-fold broth dilution method; format: functional
[14] = system: Staphylococcus aureus; assay: Antimicrobial activity against methicillin resistant Staphylococcus aureus clinical isolate MRS23 assessed as reduction in bacterial growth incubated for 24 hrs by two-fold broth dilution method; format: functional
[15] = system: Streptomyces albus; assay: Antimicrobial activity against Streptomyces albus SHBC D11158 assessed as reduction in bacterial growth incubated for 24 hrs by two-fold broth dilution method; format: functional
[16] = system: Staphylococcus aureus; assay: Antimicrobial activity against methicillin resistant Staphylococcus aureus clinical isolate MRS1 assessed as reduction in bacterial growth incubated for 24 hrs by two-fold broth dilution method; format: functional
[17] = system: Staphylococcus aureus; assay: Induction of drug resistance in Staphylococcus aureus ATCC6538 assessed as change in MIC measured after 10 passages; format: functional
[18] = system: A549; assay: Cytotoxicity against human A549 cells assessed as reduction in cell viability measured after 24 hrs by CCK-8 method; format: functional, cell-based; details: A549, 24 h
[19] = Cytotoxicity against African green monkey Vero E6 cells assessed as reduction in cell viability measured after 24 hrs by CCK-8 method; format: toxicity, cell-based, Chlorocebus sabaeus, Vero C1008
[20] = system: Staphylococcus aureus; assay: Bactericidal activity against Staphylococcus aureus ATCC6538 assessed as reduction in survival rate at 5 to 10 times MIC measured after 30 to 120 mins by colony counting method relative to control; format: functional; details: time 30-120 min
[21] = Selectivity index, ratio of HC50 for rabbit Red blood cell to MIC for Staphylococcus aureus ATCC6538; format: toxicity; details: red blood cells (erythrocytes), read-out: Selectivity Index
[22] = Selectivity index, ratio of IC50 for African green monkey Vero E6 cells to MIC for Staphylococcus aureus ATCC6538; format: toxicity; details: read-out: Selectivity Index
[23] = Cytotoxicity against HEK293 cells assessed as reduction in cell viability measured after 24 hrs by CCK-8 method; format: toxicity, cell-based; details: human
[24] = Cytotoxicity against human HaCaT cells assessed as reduction in cell viability measured after 24 hrs by CCK-8 method; format: toxicity, cell-based
[25] = system: HeLa; assay: Cytotoxicity against human HeLa cells assessed as reduction in cell viability measured after 24 hrs by CCK-8 method; format: functional, cell-based
[26] = Hemolytic activity in rabbit Red blood cell assessed as hemolysis incubated for 1 hr by two-fold microdilution method; format: toxicity, cell-based, Oryctolagus cuniculus, Erythrocyte; details: red blood cells (erythrocytes)

Row | MIC [1] | MIC [2] | SMILES | MIC [3] | MIC [4] | MIC [5] | MIC [6] | MIC [7] | MIC [8] | MIC [9] | MIC [10] | MIC [11] | MIC [12] | MIC [13] | MIC [14] | MIC [15] | MIC [16] | other results
1 | 62.5 µg/mL (≈ 166 µM) | 62.5 µg/mL (≈ 166 µM) | CCCCC(=O)N(Cc1ccc2c(c1)CCO2)c1ccc2ccccc2c1O | – | – | – | – | – | – | – | – | – | – | – | – | – | – | –
2 | 62.5 µg/mL (≈ 167 µM) | 31.2 µg/mL (≈ 83.7 µM) | CCCCC(=O)N(Cc1cc2ccccc2o1)c1ccc2ccccc2c1O | – | – | – | – | – | – | – | – | – | – | – | – | – | – | –
3 | 15.6 µg/mL (≈ 40.1 µM) | 15.6 µg/mL (≈ 40.1 µM) | CCCCC(=O)N(Cc1cc2ccccc2s1)c1ccc2ccccc2c1O | – | – | – | – | – | – | – | – | – | – | – | – | – | – | –
4 | 125 µg/mL (≈ 295 µM) | 62.5 µg/mL (≈ 148 µM) | CCCCC(=O)N(Cc1ccc2oc3ccccc3c2c1)c1ccc2ccccc2c1O | – | – | – | – | – | – | – | – | – | – | – | – | – | – | –
5 | 62.5 µg/mL (≈ 160 µM) | 31.2 µg/mL (≈ 79.8 µM) | CCCCC(=O)N(Cc1ccc2c(c1)OCCO2)c1ccc2ccccc2c1O | – | – | – | – | – | – | – | – | – | – | – | – | – | – | –

More lines, now with the values behind:

Row | SMILES | MIC [1] | MIC [2] | MIC [3] | MIC [4] | MIC [5] | MIC [6] | MIC [7] | MIC [8] | MIC [9] | MIC [10] | MIC [11] | MIC [12] | MIC [13] | MIC [14] | MIC [15] | MIC [16] | other results
6 | COc1cc(-c2ccccc2)ccc1N(Cc1cc2ccccc2s1)C(=O)CCC(F)(F)F | > 16 µg/mL | > 16 µg/mL | – | – | – | – | – | – | – | – | – | – | – | – | – | – | –
7 | CCCCC(=O)N(Cc1cc2ccccc2c2ccccc12)c1ccc2ccccc2c1O | 125 µg/mL (≈ 288 µM) | 62.5 µg/mL (≈ 144 µM) | – | – | – | – | – | – | – | – | – | – | – | – | – | – | –
8 | C=CC(=O)N(Cc1cc2ccccc2s1)c1ccc2ccccc2c1O | 7.8 µg/mL (≈ 21.7 µM) | 7.8 µg/mL (≈ 21.7 µM) | – | – | – | – | – | – | – | – | – | – | – | – | – | – | –
9 | O=C(CCC(F)(F)F)N(Cc1cc2ccccc2s1)c1cc(-c2ccncc2)ccc1O | > 16 µg/mL | > 16 µg/mL | – | – | – | – | – | – | – | – | – | – | – | – | – | – | –
10 | COc1ccccc1-c1ccc(O)c(N(Cc2cc3ccccc3s2)C(=O)CCC(F)(F)F)c1 | 1 µg/mL (≈ 2.06 µM) | 1 µg/mL (≈ 2.06 µM) | 6 µg/mL (≈ 12.4 µM) | 3 µg/mL (≈ 6.18 µM) | > 16 µg/mL | > 32 µg/mL | 16 µg/mL (≈ 33 µM) | 3 µg/mL (≈ 6.18 µM) | 16 µg/mL (≈ 33 µM) | 3 µg/mL (≈ 6.18 µM) | 16 µg/mL (≈ 33 µM) | 6 µg/mL (≈ 12.4 µM) | 6 µg/mL (≈ 12.4 µM) | 16 µg/mL (≈ 33 µM) | 16 µg/mL (≈ 33 µM) | 16 µg/mL (≈ 33 µM) | –
11 | O=C(CCC(F)(F)F)N(Cc1cc2ccccc2s1)c1cccc(-c2ccccc2)c1O | > 16 µg/mL | > 16 µg/mL | – | – | – | – | – | – | – | – | – | – | – | – | – | – | –
12 | COc1ccc(-c2ccc(O)c(N(Cc3cc4ccccc4s3)C(=O)CCC(F)(F)F)c2)cc1 | 1 µg/mL (≈ 2.06 µM) | 1 µg/mL (≈ 2.06 µM) | > 16 µg/mL | 16 µg/mL (≈ 33 µM) | > 16 µg/mL | > 32 µg/mL | > 16 µg/mL | 16 µg/mL (≈ 33 µM) | 16 µg/mL (≈ 33 µM) | > 16 µg/mL | 16 µg/mL (≈ 33 µM) | > 16 µg/mL | 16 µg/mL (≈ 33 µM) | > 16 µg/mL | > 32 µg/mL | > 16 µg/mL | –
13 | O=C(CCC(F)(F)F)N(Cc1cc2ccccc2s1)c1cc(-c2ccco2)ccc1O | 1 µg/mL (≈ 2.24 µM) | 2 µg/mL (≈ 4.49 µM) | 6 µg/mL (≈ 13.5 µM) | 3 µg/mL (≈ 6.73 µM) | 8 µg/mL (≈ 18 µM) | 16 µg/mL (≈ 35.9 µM) | 6 µg/mL (≈ 13.5 µM) | 3 µg/mL (≈ 6.73 µM) | 2 µg/mL (≈ 4.49 µM) | 3 µg/mL (≈ 6.73 µM) | 6 µg/mL (≈ 13.5 µM) | 6 µg/mL (≈ 13.5 µM) | 6 µg/mL (≈ 13.5 µM) | 2 µg/mL (≈ 4.49 µM) | 16 µg/mL (≈ 35.9 µM) | 6 µg/mL (≈ 13.5 µM) | Activity [17]: inactive; IC50 [18]: > 25 µg/mL; IC50 at 24 h [19]: > 25 µg/mL; Survival [20]: <1%; selectivity ratio [21]: > 1000; selectivity ratio [22]: > 25; IC50 at 24 h [23]: 15.4 µg/mL (≈ 34.6 µM); IC50 at 24 h [24]: > 25 µg/mL; IC50 [25]: > 25 µg/mL; HC50 at 1 h [26]: 1640 µg/mL
14 | O=C(CCC(F)(F)F)N(Cc1cc2ccccc2s1)c1ccc2ccccc2c1O | 2 µg/mL (≈ 4.66 µM) | 2 µg/mL (≈ 4.66 µM) | – | – | – | – | – | – | – | – | – | – | – | – | – | – | –
15 | O=C(CCC(F)(F)F)N(Cc1cc2ccccc2s1)c1cc(-c2ccc(Cl)cc2)ccc1O | 1 µg/mL (≈ 2.04 µM) | 1 µg/mL (≈ 2.04 µM) | 6 µg/mL (≈ 12.2 µM) | 3 µg/mL (≈ 6.12 µM) | 16 µg/mL (≈ 32.7 µM) | 4 µg/mL (≈ 8.16 µM) | 6 µg/mL (≈ 12.2 µM) | 16 µg/mL (≈ 32.7 µM) | 6 µg/mL (≈ 12.2 µM) | 3 µg/mL (≈ 6.12 µM) | 16 µg/mL (≈ 32.7 µM) | 6 µg/mL (≈ 12.2 µM) | 3 µg/mL (≈ 6.12 µM) | 16 µg/mL (≈ 32.7 µM) | 4 µg/mL (≈ 8.16 µM) | 6 µg/mL (≈ 12.2 µM) | Activity [17]: Active; IC50 [18]: 16.2 µg/mL (≈ 33.1 µM); IC50 at 24 h [19]: 21.5 µg/mL (≈ 43.8 µM); selectivity ratio [21]: > 1000; selectivity ratio [22]: 21; IC50 at 24 h [23]: > 25 µg/mL; IC50 at 24 h [24]: 13.8 µg/mL (≈ 28.2 µM); IC50 [25]: 22.8 µg/mL (≈ 46.6 µM); HC50 at 1 h [26]: 1920 µg/mL
16 | O=C(CCC(F)(F)F)N(Cc1cc2ccccc2s1)c1cc(-c2ccc(C(F)(F)F)cc2)ccc1O | 2 µg/mL (≈ 3.82 µM) | 0.5 µg/mL (≈ 0.955 µM) | 16 µg/mL (≈ 30.6 µM) | 3 µg/mL (≈ 5.73 µM) | 16 µg/mL (≈ 30.6 µM) | 8 µg/mL (≈ 15.3 µM) | 6 µg/mL (≈ 11.5 µM) | 6 µg/mL (≈ 11.5 µM) | 6 µg/mL (≈ 11.5 µM) | 6 µg/mL (≈ 11.5 µM) | 16 µg/mL (≈ 30.6 µM) | 6 µg/mL (≈ 11.5 µM) | 6 µg/mL (≈ 11.5 µM) | 16 µg/mL (≈ 30.6 µM) | 8 µg/mL (≈ 15.3 µM) | 16 µg/mL (≈ 30.6 µM) | Activity [17]: inactive; IC50 [18]: 3.61 µg/mL (≈ 6.9 µM); IC50 at 24 h [19]: 5.55 µg/mL (≈ 10.6 µM); selectivity ratio [21]: > 1000; selectivity ratio [22]: 11; IC50 at 24 h [23]: 2.79 µg/mL (≈ 5.33 µM); IC50 at 24 h [24]: 3.92 µg/mL (≈ 7.49 µM); IC50 [25]: 5 µg/mL (≈ 9.55 µM); HC50 at 1 h [26]: 5570 µg/mL
